Columns and labels:
COLO 205 = experiment: NCI human tumor cell panel: COLO 205 (Colon Cancer); assay type: cell-based; conditions: COLO 205, read-out: Log10 GI50 (converted)
MOLT-4 = experiment: NCI human tumor cell panel: MOLT-4 (Leukemia); assay type: cell-based
U251 = experiment: NCI human tumor cell panel: U251 (CNS Cancer); assay type: cell-based
NCI-H226 = experiment: NCI human tumor cell panel: NCI-H226 (Non-Small Cell Lung Cancer); assay type: cell-based
SN12C = experiment: NCI human tumor cell panel: SN12C (Renal Cancer); assay type: cell-based
SW-620 = experiment: NCI human tumor cell panel: SW-620 (Colon Cancer); assay type: cell-based
HCC-2998 = experiment: NCI human tumor cell panel: HCC-2998 (Colon Cancer); assay type: cell-based
MDA-MB-231/ATCC = experiment: NCI human tumor cell panel: MDA-MB-231/ATCC (Breast Cancer); assay type: cell-based; conditions: Homo sapiens, MDA-MB-231, MDA-MB-231/ATCC
HCT-116 = experiment: NCI human tumor cell panel: HCT-116 (Colon Cancer); assay type: cell-based
MCF7 = experiment: NCI human tumor cell panel: MCF7 (Breast Cancer); assay type: cell-based
HCT-15 = experiment: NCI human tumor cell panel: HCT-15 (Colon Cancer); assay type: cell-based
SNB-75 = experiment: NCI human tumor cell panel: SNB-75 (CNS Cancer); assay type: cell-based
M14 = experiment: NCI human tumor cell panel: M14 (Melanoma); assay type: cell-based
HT29 = experiment: NCI human tumor cell panel: HT29 (Colon Cancer); assay type: cell-based; conditions: HT-29, HT29, read-out: Log10 TGI (converted)
SK-MEL-2 = experiment: NCI human tumor cell panel: SK-MEL-2 (Melanoma); assay type: cell-based
SK-OV-3 = experiment: NCI human tumor cell panel: SK-OV-3 (Ovarian Cancer); assay type: cell-based
CCRF-CEM = experiment: NCI human tumor cell panel: CCRF-CEM (Leukemia); assay type: cell-based
[1] = test system: panel of sixty different human tumor cell lines; experiment: NCI human tumor cell panel: whole panel (mean graph summary)
MDA-N = experiment: NCI human tumor cell panel: MDA-N (Breast Cancer); assay type: cell-based
NCI-H23 = experiment: NCI human tumor cell panel: NCI-H23 (Non-Small Cell Lung Cancer); assay type: cell-based
SF-268 = experiment: NCI human tumor cell panel: SF-268 (CNS Cancer); assay type: cell-based
DU-145 = experiment: NCI human tumor cell panel: DU-145 (Prostate Cancer); assay type: cell-based
SK-MEL-5 = experiment: NCI human tumor cell panel: SK-MEL-5 (Melanoma); assay type: cell-based
UACC-62 = experiment: NCI human tumor cell panel: UACC-62 (Melanoma); assay type: cell-based
RXF-393 = experiment: NCI human tumor cell panel: RXF-393 (Renal Cancer); assay type: cell-based
T-47D = experiment: NCI human tumor cell panel: T-47D (Breast Cancer); assay type: cell-based; conditions: T47D
HOP-62 = experiment: NCI human tumor cell panel: HOP-62 (Non-Small Cell Lung Cancer); assay type: cell-based; conditions: HOP-62, read-out: Log10 TGI (converted)
CAKI-1 = experiment: NCI human tumor cell panel: CAKI-1 (Renal Cancer); assay type: cell-based
HL-60(TB) = experiment: NCI human tumor cell panel: HL-60(TB) (Leukemia); assay type: cell-based
[2] = read-out: Log10 GI50 (converted)
[3] = read-out: Log10 TGI (converted)

OCc1ccc(-c2ccc(-c3ccc[se]3)s2)[se]1 [compound 676631]
GI50 (COLO 205): 0.288 µM | GI50 (MOLT-4; MOLT-4, read-out: Log10 GI50 (converted)): > 100 µM | IC (TGI) (MOLT-4; MOLT-4, read-out: Log10 TGI (converted)): > 100 µM | GI50 (U251; U-251, U251, read-out: Log10 GI50 (converted)): 0.0776 µM | IC (TGI) (U251; U-251, U251, read-out: Log10 TGI (converted)): 20 µM | GI50 (NCI-H226; NCI-H226, read-out: Log10 GI50 (converted)): 0.0501 µM | IC (TGI) (NCI-H226; NCI-H226, read-out: Log10 TGI (converted)): 0.182 µM | GI50 (SN12C; [2]): > 100 µM | IC (TGI) (SN12C; [3]): > 100 µM | GI50 (SW-620; SW-620, read-out: Log10 GI50 (converted)): 0.355 µM | IC (TGI) (SW-620; SW-620, read-out: Log10 TGI (converted)): > 100 µM | GI50 (HCC-2998; HCC-2998, read-out: Log10 GI50 (converted)): 42.7 µM | IC (TGI) (HCC-2998; HCC-2998, read-out: Log10 TGI (converted)): > 100 µM | GI50 (MDA-MB-231/ATCC; [2]): 19.1 µM | IC (TGI) (MDA-MB-231/ATCC; [3]): 87.1 µM | GI50 (HCT-116; HCT-116, read-out: Log10 GI50 (converted)): 0.0537 µM | IC (TGI) (HCT-116; HCT-116, read-out: Log10 TGI (converted)): > 100 µM | GI50 (MCF7; MCF7, read-out: Log10 GI50 (converted)): 0.0933 µM | IC (TGI) (MCF7; MCF7, read-out: Log10 TGI (converted)): 21.9 µM | GI50 (HCT-15; HCT-15, read-out: Log10 GI50 (converted)): 27.5 µM | IC (TGI) (HCT-15; HCT-15, read-out: Log10 TGI (converted)): > 100 µM | GI50 (SNB-75; SNB-75, read-out: Log10 GI50 (converted)): 41.7 µM | IC (TGI) (SNB-75; SNB-75, read-out: Log10 TGI (converted)): > 100 µM | GI50 (M14; M14, read-out: Log10 GI50 (converted)): 20 µM | IC (TGI) (M14; M14, read-out: Log10 TGI (converted)): > 100 µM | IC (TGI) (HT29): > 100 µM | GI50 (SK-MEL-2; SK-MEL-2, read-out: Log10 GI50 (converted)): > 100 µM | IC (TGI) (SK-MEL-2; SK-MEL-2, read-out: Log10 TGI (converted)): > 100 µM | GI50 (SK-OV-3; SK-OV-3, read-out: Log10 GI50 (converted)): 45.7 µM | IC (TGI) (SK-OV-3; SK-OV-3, read-out: Log10 TGI (converted)): > 100 µM | GI50 (CCRF-CEM; [2]): > 100 µM | IC (TGI) (CCRF-CEM; [3]): > 100 µM | GI50 ([1]; Homo sapiens, read-out: Log10 GI50, MG_MID, mean over the panel (converted)): 6.61 µM | Log10 LC50, MG_MID ([1]; mean over the panel): −4.15 | Log10 TGI, MG_MID ([1]; mean over the panel): −4.47 | Log10 TGI, Delta ([1]; whole panel): 2.61 | Log10 TGI, Range ([1]; whole panel): 3.08 | GI50 (MDA-N; [2]): 16.6 µM | IC (TGI) (MDA-N; [3]): 43.7 µM | GI50 (NCI-H23; NCI-H23, read-out: Log10 GI50 (converted)): 16.6 µM | IC (TGI) (NCI-H23; NCI-H23, read-out: Log10 TGI (converted)): 38.9 µM | GI50 (SF-268; SF-268, read-out: Log10 GI50 (converted)): 23.4 µM | IC (TGI) (SF-268; SF-268, read-out: Log10 TGI (converted)): 64.6 µM | GI50 (DU-145; DU-145, read-out: Log10 GI50 (converted)): 20 µM | IC (TGI) (DU-145; DU-145, read-out: Log10 TGI (converted)): 77.6 µM | GI50 (SK-MEL-5; SK-MEL-5, read-out: Log10 GI50 (converted)): > 100 µM | IC (TGI) (SK-MEL-5; SK-MEL-5, read-out: Log10 TGI (converted)): > 100 µM | GI50 (UACC-62; UACC-62, read-out: Log10 GI50 (converted)): 0.0263 µM | IC (TGI) (UACC-62; UACC-62, read-out: Log10 TGI (converted)): 0.115 µM | GI50 (RXF-393; RXF-393, read-out: Log10 GI50 (converted)): 72.4 µM | IC (TGI) (RXF-393; RXF-393, read-out: Log10 TGI (converted)): > 100 µM | GI50 (T-47D; [2]): 0.676 µM | IC (TGI) (T-47D; [3]): > 100 µM | IC (TGI) (HOP-62): > 100 µM | GI50 (CAKI-1; CAKI-1, read-out: Log10 GI50 (converted)): 0.0309 µM | IC (TGI) (CAKI-1; CAKI-1, read-out: Log10 TGI (converted)): 0.191 µM | GI50 (HL-60(TB); [2]): > 100 µM | IC (TGI) (HL-60(TB); read-out: Log10 TGI): > 100 µM

Source: patent US20040063662A1, “Selenophene anti-tumor agents” (priority 1996, published 2004)
